Measured values published in patent US20040248275A1, “Engineered bacterial aggregates” (priority 2003, published 2004).

What was measured:
Format in all cases: cell-based
[1] = test system: Corynebacterium aquaticum; test: QUAT susceptibility of single-species aggregates (survivors); conditions: for No. of survivors after 20 minutes following treatment of 100 μm aggregate with 1 mM QUAT: 100 μm single species aggregate; for No. of survivors (%) at 20 min: 1 mM QUAT
Procedure: (§1) In another version of the present invention, one would test a biocide with the aggregates described above in the following manner: Volumes (1-10 mL) of customized aggregate suspensions, formed as described earlier, are held in suitable containers (microtitre plate well, mini-centrifuge tubes, pyrex glass test-tubes) to which are added appropriate concentrations of the test biocide (volume 5-25% of suspension volume). After a chosen contact times have elapsed (1-30 minutes) samples are removed to a neutralizer solution appropriate to the chosen biocide containing the antagonistic sugar (50 mM) for the chosen lectin (See Table 1). The aggregates disperse into single cell suspension that upon which simple plate count estimates of the viable surviving cell number may be conducted. Control experiments are conducted on disaggregated populations created by resuspending the customized aggregates in the antagonistic sugar (50 mM) prior to the addition of biocide.
(§2) Single species (Pseudomonas sp. 2881, Aeromonas hydrophila and Corynebacterium aquaticum) aggregates of 10, 50 and 100 μm in size were constructed and treated with different concentrations of three simple quaternary ammonium compounds (n-alkyl dimethyl benzyl ammonium chloride where n=12, 14 or 16).

[2] = test system: Aeromonas hydrophila; test: as above; conditions: for No. of survivors after 20 minutes following treatment of 100 μm aggregate with 1 mM QUAT: 100 μm single species aggregate; for No. of survivors (%) at 20 min: 1 mM QUAT
Procedure: as §1, §2

[3] = test system: Pseudomonas sp. 2881; test: as above; conditions: for No. of survivors after 20 minutes following treatment of 100 μm aggregate with 1 mM QUAT: 100 μm single species aggregate; for No. of survivors (%) at 20 min: 1 mM QUAT
Procedure: as §1, §2

[4] = test system: Pseudomonas sp. 2881; test: QUAT susceptibility in structured multi-species aggregates (survivors); conditions: 1 mM QUAT
Procedure: (§3) In another method of the present invention, one would form a multilamellar spherical aggregate in the following manner: In order to construct lamellar aggregates, aggregates of defined size should be prepared for the ‘core’ under XS (see i or ii above). Cores, either homogeneous or heterogeneous, are harvested by centrifugation (3000 g 10 minutes) and resuspended in the original volume of phosphate buffered saline (pH 7.1). Mix equal parts of the harvested core aggregates and a washed suspension of the ‘coating organism’ (1×10^7-5×10^8 cells/mL).
as §1
(§4) Binary lamellar aggregates were constructed for all combinations of the three test species. Core aggregate size was 50 microns diameter. Cores were coated with an equal number of the partner species. Each test species served as both core-aggregate and shell in these experiments. […] When the cells were aggregated prior to exposure to QUATs, then it became apparent that there was not only a protection afforded by aggregation but that the relative location of one species to the other affected the inactivation. Selected data is presented that compares inactivation of unordered (homogeneous) aggregates of two different species with ones where each of the partner organisms serves as either the core or shell to the other.

[5] = test system: C. aquaticum; test: as above; conditions: 1 mM QUAT
Procedure: as §3, §1, §4

[6] = test system: A. hydrophila; test: as above; conditions: 1 mM QUAT
Procedure: as §3, §1, §4

[7] = 100 μm Pseudomonas sp. 2881 - A. hydrophila aggregate, Unordered mixture
[8] = 100 μm Pseudomonas sp. 2881 - C. aquaticum aggregate, Unordered mixture
[9] = 100 μm aggregate, A. hydrophila shell, Pseudomonas sp. 2881 core
[10] = 100 μm aggregate, C. aquaticum shell, Pseudomonas sp. 2881 core
[11] = 100 μm aggregate, Pseudomonas sp. 2881 shell, A. hydrophila core
[12] = 100 μm aggregate, Pseudomonas sp. 2881 shell, C. aquaticum core
[13] = 100 μm A. hydrophila - C. aquaticum aggregate, Unordered mixture
[14] = 100 μm aggregate, A. hydrophila shell, C. aquaticum core
[15] = 100 μm aggregate, C. aquaticum shell, A. hydrophila core
[16] = single-species aggregate Approx. 10 μm
[17] = single-species aggregate Approx. 50 μm
[18] = single-species aggregate Approx. 100 μm

## n-alkyl dimethyl benzyl ammonium chloride [C12 QUAT]
[1]
  No. of survivors after 20 minutes following treatment of 100 μm aggregate with 1 mM QUAT: 0.240
[2]
  No. of survivors after 20 minutes following treatment of 100 μm aggregate with 1 mM QUAT: 0.635
[3]
  No. of survivors after 20 minutes following treatment of 100 μm aggregate with 1 mM QUAT: 0.711

## n-alkyl dimethyl benzyl ammonium chloride [C14 QUAT]
[4]; [7]
  % No. survivors after 20 minutes: 0.241%
[4]; [8]
  % No. survivors after 20 minutes: 0.264%
[4]; [9]
  % No. survivors after 20 minutes: 0.319%
[4]; [10]
  % No. survivors after 20 minutes: 0.425%
[4]; [11]
  % No. survivors after 20 minutes: 0.147%
[4]; [12]
  % No. survivors after 20 minutes: 0.219%
[5]; [13]
  % No. survivors after 20 minutes: 0.0364%
[5]; [8]
  % No. survivors after 20 minutes: 0.0412%
[5]; [14]
  % No. survivors after 20 minutes: 0.0457%
[5]; [15]
  % No. survivors after 20 minutes: >0.001%
[5]; [10]
  % No. survivors after 20 minutes: >0.001%
[5]; [12]
  % No. survivors after 20 minutes: 0.0698%
[6]; [13]
  % No. survivors after 20 minutes: 0.172%
[6]; [7]
  % No. survivors after 20 minutes: 0.112%
[6]; [14]
  % No. survivors after 20 minutes: 0.131%
[6]; [9]
  % No. survivors after 20 minutes: 0.0065%
[6]; [15]
  % No. survivors after 20 minutes: 0.365%
[6]; [11]
  % No. survivors after 20 minutes: 0.176%
[1]; No aggregate (free cells)
  No. of survivors (%) at 20 min: <0.00001%
[1]; [16]
  No. of survivors (%) at 20 min: 0.0002%
[1]; [17]
  No. of survivors (%) at 20 min: 0.0027%
[1]; [18]
  No. of survivors (%) at 20 min: 0.0829%
[1]
  No. of survivors after 20 minutes following treatment of 100 μm aggregate with 1 mM QUAT: 0.083
[2]; No aggregate (free cells)
  No. of survivors (%) at 20 min: <0.00001%
[2]; [16]
  No. of survivors (%) at 20 min: 0.0041%
[2]; [17]
  No. of survivors (%) at 20 min: 0.0282%
[2]; [18]
  No. of survivors (%) at 20 min: 0.4197%
[2]
  No. of survivors after 20 minutes following treatment of 100 μm aggregate with 1 mM QUAT: 0.420
[3]; No aggregate (free cells)
  No. of survivors (%) at 20 min: 0.001%
[3]; [16]
  No. of survivors (%) at 20 min: 0.021%
[3]; [17]
  No. of survivors (%) at 20 min: 0.0598%
[3]; [18]
  No. of survivors (%) at 20 min: 0.5942%
[3]
  No. of survivors after 20 minutes following treatment of 100 μm aggregate with 1 mM QUAT: 0.594

## n-alkyl dimethyl benzyl ammonium chloride [C16 QUAT]
[1]
  No. of survivors after 20 minutes following treatment of 100 μm aggregate with 1 mM QUAT: 0.266
[2]
  No. of survivors after 20 minutes following treatment of 100 μm aggregate with 1 mM QUAT: 0.594
[3]
  No. of survivors after 20 minutes following treatment of 100 μm aggregate with 1 mM QUAT: 0.724
